Counter-ions that a name gives are not always drawn. Like-named read-outs stand apart in the source and are kept apart here.
Columns and labels:
SUDHL5 [1] = test: Induction of caspase-3/7 activity (Caspase-Glo 3/7), SUDHL5; type: cell-based; settings: caspase-3/7 induction, SUDHL5 cells, 3 h treatment, median
Method: (§1) Induction of Caspase-317 Activity Upon Treatment of Cells with Selected Compounds
(§2) The BH3-domain of MCL-1 sequesters pro-apoptotic proteins, thereby inhibiting apoptosis. In contrast, MCL-1 inhibitors are expected to antagonize this effect leading to an increase in apoptosis, which can be determined by measuring the activity of caspase-3/7.
(§3) The activity of caspase-3/7 was determined in DLBCL (Diffuse large B-cell lymphoma) cell lines (SUDHL5 and SUDHL10) upon treatment with different compounds, using the Caspase-Glo® 3/7 reagent from Promega (G8092).
(§4) Rim wells were excluded. The cells were incubated for 3 h hours in a humidified incubator at 37° C.
(§5) For the evaluation of the results, the background measured with “medium-only” was subtracted from all other values. […] The Bella DRC Master Sheet was used to calculate EC50s, with fixed C0=1 and CI=plateaulmax induction for the reference compound.

SUDHL10 [2] = test: Induction of caspase-3/7 activity (Caspase-Glo 3/7), SUDHL10; type: cell-based; settings: caspase-3/7 induction, SUDHL10 cells, 3 h treatment, median
Method: as §1, §2, §3, §4, §5

A2780 = test: Anti-proliferative effect (CellTiter-Glo, 72 h), A2780; type: cell-based; settings: A2780 cells, median, read-out: IC50 antiproliferation assay A2780 [M] (median)
Method: (§6) Assessment of the Anti-Proliferative Effect of Compounds in Different Cell Lines
(§7) The impact of compounds on the proliferation of different cell lines was assessed using the CellTiter-Glo® Luminescent Cell Viability reagent from Promega (G7573). Of note, SUDHL10 and SUDHL5 (DLBCL), NCI-H929 (Multiple Myeloma), A2780 (ovarian carcinoma) as well as MV-4-11(AML) cells are sensitive to MCL-1 inhibition.
(§8) In parallel, cells were plated in a reference (day 0) plate for time zero determination.
(§9) Rim wells were excluded. The cells were incubated for 72 h hours in a humidified incubator at 37° C. The day 0 plate was measured by adding 30 μl/well of CTG solution (CellTiter-Glo® Luminescent Cell Viability reagent, Promega G7573) to time zero wells in the reference plate followed by a 10 minutes incubation and luminescence reading at 0.1 ms, using the PHERAstar FS microplate reader (BMG Labtech).
(§10) After 72 h incubation, the treated plates were measured in the same way as the day 0 plate mentioned above.

SUDHL10 [3] = test: Induction of cytotoxicity (CellTiter-Glo, 5 h), SUDHL10
MCL-1 = MCL-1 (Homo sapiens, UniProt Q07820); test: Protein-protein interaction assay MCL-1/Noxa BH3 peptide (MCL-1 assay), TR-FRET; type: binding; settings: MBP-MCL-1 / Noxa BH3-derived peptide, median
Method: Protein-Protein Interaction Assay: MCL-1/Noxa BH3 Peptide (MCL-1 Assay) […]
In the assay 11 different concentrations of each compound (0.1 nM, 0.33 nM, 1.1 nM, 3.8 nM, 13 nM, 44 nM, 0.15 μM, 0.51 μM, 1.7 μM, 5.9 μM and 20 μM) were typically measured as duplicates in the same microtiter plate. For that, 100-fold concentrated DMSO solutions were prepared by serial dilutions (1:3.4) of a 2 mM stock solution in a clear, 384-well microtiter plate (Greiner Bio-One, Frickenhausen, Germany). From there, 50 ni were transferred in a dark test plate (Greiner Bio-One, Frickenhausen, Germany). The assay was initiated by addition of 2 μl of a 2.5-fold concentrated MBP-MCL-1 solution (usually for a 1 nM end concentration in 5 μl reaction volume) in aqueous assay buffer [50 mM Tris/HCl pH 7, 100 mM sodium chloride (NaCl), 50 mM potassium fluoride (KF), 0.005% Tween-20, 2 mM DTT, 0.1% bovine gamma globulin (BGG)] to the compounds in the assay plate. This was followed by a 10-minute incubation step at 22° C. for pre-equilibration of the putative complex between MBP-MCL-1 and the compounds. After that.
The mixture was incubated in the dark for one hour at 22° C. and then overnight at 4° C. The formation of MCL-1/Noxa complexes was determined by measuring the resonance energy transfer of the anti-MBP- Eu-cryptate antibody to the streptavidin-XL665 present in the reaction. For that purpose, the fluorescence emission at 620 nm and 665 nm after excitation at 330-350 nm was measured in a TR-FRET measuring instrument, for instance a Rubystar or a Pherastar (both from BMG Lab Technologies, Offenburg, Germany) or a Viewlux (Perkin-Elmer). The ratio of the emission at 665 nm and at 622 nm was used as indicator of the amount of MCL-1/NOXA complexes present.
The resulting data (ratio) were normalized, taking 0% inhibition as the mean value of control measurements (usually 32 data points) where all reagents were included. In this case 50 nl DMSO were used instead of compounds. A 100% inhibition corresponded to the mean value of control measurements (usually 32 data points) where all reagents except MCL-1 were included. IC50 values were determined by regression analysis based on a 4 parameter equation (minimum, maximum, IC50, Hill; Y=Max+(Min−Max)/(1+(X/IC50)^Hill) using the Screener Software (Genedata).

SUDHL5 [4] = test: Induction of cytotoxicity (CellTiter-Glo, 5 h), SUDHL5
SUDHL5 [5] = test: Anti-proliferative effect (CellTiter-Glo, 72 h), SUDHL5; type: cell-based; settings: SUDHL5 cells, antiproliferation, median, read-out: Antiproli SUDHL5 [M] (median)
Method: as §6, §7, §8, §9, §10

[6] = Homo sapiens, SU-DHL10, 5 h, read-out: Cytotox SUDHL10 [M] (median), SUDHL10 cells, cytotoxicity induction, CellTiter-Glo, 5 h incubation, median
[7] = Homo sapiens, SU-DHL-5, 5 h, read-out: Cytotox SUDHL5 [M] (median), SUDHL5 cells, cytotoxicity induction, CellTiter-Glo, 5 h incubation, median
[8] = Homo sapiens, SU-DHL-5, 72 h, 72 h incubation
[9] = Homo sapiens, SU-DHL10, 5 h, read-out: Cytotox SUDHL10 [M] (median), SUDHL10 cells, cytotoxicity induction, CellTiter-Glo, 5 h, median
[10] = Homo sapiens, SU-DHL-5, 5 h, read-out: Cytotox SUDHL5 [M] (median), SUDHL5 cells, cytotoxicity induction, CellTiter-Glo, 5 h, median
[11] = Homo sapiens, SU-DHL-5, 72 h, 72 h
[12] = read-out: Cytotox SUDHL10 [M] (median), SUDHL10 cells, cytotoxicity induction, CellTiter-Glo, 5 h incubation, median
[13] = read-out: Cytotox SUDHL5 [M] (median), SUDHL5 cells, cytotoxicity induction, CellTiter-Glo, 5 h incubation, median

Chain of MCL-1 (Q07820 whole entry): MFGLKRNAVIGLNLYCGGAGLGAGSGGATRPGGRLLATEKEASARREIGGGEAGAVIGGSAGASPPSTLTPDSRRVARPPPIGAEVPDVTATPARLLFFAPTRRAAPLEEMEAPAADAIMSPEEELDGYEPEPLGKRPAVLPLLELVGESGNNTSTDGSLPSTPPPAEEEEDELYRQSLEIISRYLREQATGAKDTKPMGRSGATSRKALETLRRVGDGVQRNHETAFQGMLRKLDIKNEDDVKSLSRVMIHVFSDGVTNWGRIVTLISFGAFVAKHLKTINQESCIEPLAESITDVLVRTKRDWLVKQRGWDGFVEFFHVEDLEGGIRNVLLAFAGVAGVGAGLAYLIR

Compound	EC50 (SUDHL5 [1]; Homo sapiens, SU-DHL-5, 3 h) [µM]	EC50 (SUDHL10 [2]; Homo sapiens, SU-DHL10, 3 h) [µM]	IC50 (A2780; Homo sapiens, A2780, 72 h) [M]	IC50 (MCL-1) [µM]	IC50 (SUDHL5 [5]; [8]) [M]	IC50 (SUDHL5 [5]; [11]) [M]	EC50 (SUDHL5 [1]) [µM]	EC50 (SUDHL10 [2]) [µM]	IC50 (A2780) [M]	IC50 (SUDHL5 [5]; 72 h incubation) [M]	IC50 (SUDHL10 [3]; [6]) [M]	IC50 (SUDHL5 [4]; [7]) [M]	IC50 (SUDHL10 [3]; [9]) [M]	IC50 (SUDHL5 [4]; [10]) [M]	IC50 (SUDHL10 [3]; [12]) [M]	IC50 (SUDHL5 [4]; [13]) [M]
CCc1nn(C)c2c1-c1c(C)ccc3c(C(C)CCOc4cccc5ccccc45)c(C(=O)O)n(c13)CCCCOC2 (racemic) [Example 271, 3-ethyl-1,4-dimethyl-7-[4-(naphthalen-1-yloxy)butan-2-yl]-1,10,11,12,13,15-hexahydropyrazolo[4′,3′:9,10][1,6]oxazacycloundecino[8,7,6-hi]indole-8-carboxylic Acid]	> 33	> 33	1.83e-05	0.0306	1.27e-05	–	–	–	–	–	> 3.3e-05	3.28e-05	–	–	–	–
COc1c2c(nn1C)COCCCCn1c(C(=O)O)c(CCCOc3cccc4ccccc34)c3cccc-2c31 (single isomer, unassigned) [Example 209, 3-methoxy-2-methyl-7-[3-(naphthalen-1-yloxy)propyl]-2,10,11,12,13,15-hexahydropyrazolo[4′,3′:9,10][1,6]oxazacycloundecino[8,7,6-hi]indole-8-carboxylate]	–	–	–	0.025	–	–	> 33	> 33	1.58e-05	1.58e-05	–	–	–	–	> 3.3e-05	> 3.3e-05
CCc1nn(C)c2c1-c1c(C)ccc3c(C(C)CCOc4cccc5cc(F)ccc45)c(C(=O)O)n(c13)CCCCOC2 (single isomer, unassigned) [Example 262, 3-ethyl-7-{4-[(6-fluoronaphthalen-1-yl)oxy]butan-2-yl}-1,4-dimethyl-1,10,11,12,13,15-hexahydropyrazolo[4′,3′:9,10][1,6]oxazacycloundecino[8,7,6-hi]indole-8-carboxylic Acid]	–	–	–	0.0388	–	–	22.6	> 33	7.54e-06	4.2e-06	–	–	–	–	2.15e-05	1.67e-05
CCc1nn(C)c2c1-c1c(C)ccc3c(C(C)CCOc4cccc5cc(F)ccc45)c(C(=O)O)n(c13)CCCCOC2 (single isomer, unassigned) [Example 263, 3-ethyl-7-{4-[(6-fluoronaphthalen-1-yl)oxy]butan-2-yl}-1,4-dimethyl-1,10,11,12,13,15-hexahydropyrazolo[4′,3′:9,10][1,6]oxazacycloundecino[8,7,6-hi]indole-8-carboxylic Acid]	–	–	–	0.926	–	–	> 33	> 33	1.01e-05	4.61e-06	–	–	–	–	2.79e-05	> 3.3e-05

The next compounds have a lower IC50 (MCL-1) than those just listed; values first:

EC50 (SUDHL5 [1]; Homo sapiens, SU-DHL-5, 3 h) [µM]	EC50 (SUDHL10 [2]; Homo sapiens, SU-DHL10, 3 h) [µM]	IC50 (A2780; Homo sapiens, A2780, 72 h) [M]	IC50 (MCL-1) [µM]	IC50 (SUDHL5 [5]; [8]) [M]	IC50 (SUDHL5 [5]; [11]) [M]	EC50 (SUDHL5 [1]) [µM]	EC50 (SUDHL10 [2]) [µM]	IC50 (A2780) [M]	IC50 (SUDHL5 [5]; 72 h incubation) [M]	Compound	IC50 (SUDHL10 [3]; [6]) [M]	IC50 (SUDHL5 [4]; [7]) [M]	IC50 (SUDHL10 [3]; [9]) [M]	IC50 (SUDHL5 [4]; [10]) [M]	IC50 (SUDHL10 [3]; [12]) [M]	IC50 (SUDHL5 [4]; [13]) [M]
26.2	> 33	1.41e-05	0.0187	–	1.27e-05	–	–	–	–	Cc1ccc2c(C(C)CCOc3cccc4ccccc34)c(C(=O)O)n3c2c1-c1c(nn(C)c1C)COCCCC3 (racemic) [Example 362, 11,12,13-trimethyl-1-(4-(naphthalen-1-yloxy)butan-2-yl)-4,5,6,7,9,11-hexahydropyrazolo[4′,3′:9,10][1,6]oxaazacycloundecino[8,7,6-hi]indole-2-carboxylic Acid (Mixture of Stereoisomers)]	–	–	> 3.3e-05	2.72e-05	–	–
> 33	> 33	1.2e-05	0.0173	–	2.06e-05	–	–	–	–	CN1CCN(Cc2c3c(nn2C)COC/C=C\Cn2c(C(=O)O)c(CCCOc4cccc5ccccc45)c4cccc-3c42)CC1 (racemic) [Example 358, (rac)-(11 Z)-2-methyl-3-[(4-methylpiperazin-1-yl)methyl]-7-[3-(naphthalen-1-yloxy)propyl]-2,10,13,15-tetrahydropyrazolo[4′,3′:9,10][1,6]oxazacycloundecino[8,7,6-hi]indole-8-carboxylic Acid]	–	–	> 3.3e-05	> 3.3e-05	–	–
23.3	> 33	> 3.3e-05	0.0107	> 3.3e-05	–	–	–	–	–	COCc1nn(C)c2c1-c1cccc3c(CCCOc4cccc5ccccc45)c(C(=O)O)n(c13)CCCCCOC2 (racemic) [Example 177, (rac)-3-(methoxymethyl)-1-methyl-7-[3-(naphthalen-1-yloxy)propyl]-1,11,12,13,14,16-hexahydro-10H-pyrazolo[3′,4′:3,4][1,7]oxazacyclododecino[5,6,7-hi]indole-8-carboxylic Acid]	> 3.3e-05	2.14e-05	–	–	–	–
7.09	16.5	1.43e-05	0.00778	1.11e-05	–	–	–	–	–	Cc1c2c(nn1CCN(C)C)COCCCCn1c(C(=O)O)c(CCCOc3cccc4ccccc34)c3cccc-2c31 (racemic) [Example 243, (rac)-2-[2-(dimethylamino)ethyl]-3-methy-7-[3-(naphthalen-1-yloxy)propyl]-2,10,11,12,13,15-hexahydropyrazolo[4′,3′:9,10][1,6]oxazacycloundecino[8,7,6-hi]indole-8-carboxylic Acid Trifluoroacetic Acid Salt]	1.46e-05	6.44e-06	–	–	–	–
10	28.7	2.02e-05	0.0058	1.27e-05	–	–	–	–	–	Cn1nc(C(F)(F)F)c2c1COCCCCn1c(C(=O)O)c(CCCOc3cccc4ccccc34)c3cccc-2c31 (racemic) [Example 216, (rac)-1-methyl-7-[3-(naphthalen-1-yloxy)propyl]-3-(trifluoromethyl)-1,10,11,12,13,15-hexahydropyrazolo[4′,3′:9,10][1,6]oxazacycloundecino[8,7,6-hi]indole-8-carboxylic Acid]	3.11e-05	1.04e-05	–	–	–	–

Reference: patent publication US10981932B2, “Macrocyclic indole derivatives” (Bayer Aktiengesellschaft, priority 2016, dated 2021)
